Measured values as given in patent US20020048549A1, “Radioactive transition metal nitride heterocomplex” (priority 1996, published 2002).
Where two headings read alike, the source gives them in different places.

Experiments:
[1] = Biodistribution of 99mTc(N)(X)(DTC)+ heterocomplexes in rats; type: in vivo, male Spraque-Dawley rats (SD rats)
Protocol: The biodistribution of a ^99mTc nitride heterocomplex represented by the general formula ^99mTc(N)(X)(Y) was investigated as follows: ^99mTc nitride heterocomplexes were synthesized using DTC as a bidentate ligand Y and each of the diphosphine compounds X described below, and the biodistribution in rats of each heterocomplex was investigated.
Before being injected into rats, the contents of the vial were diluted with phosphate buffer (0.1 mol/dm^3, pH=7.06) containing 10% Tween 80 ([…]). The complexes were stable in the solutions and in human plasma for at least 6 hours.
The biodistribution was measured using male Spraque-Dawley rats (SD rats) weighing 200 to 250 g. After 24 hours fasting, the rats were put under intraperitoneal anesthesia and given an injection in the jugular vein. Then, the organs were excised from the rats at different intervals of time, washed and then weighed. In addition, blood samples were collected and then weighed. The data on the biodistribution are expressed as the mean±significant difference of the percentage of radioactivity level per gram of the organ weight based on the dose of radioactivity, (% dose/g). The measurement was carried out using groups of 5 rats each.

[2] = Stability of the complex / its solution after preparation; type: physicochemical; conditions: reaction solution after preparation
Protocol: In a mixture of 0.6 ml of ethanol and […] ( 1 mol/l) of an aqueous HCl solution were dissolved 5 mg of SDH and 1.5 mg of PNP, followed by adding thereto a physiologically acceptable ^99mTcO4^− solution ( 0.5 ml, 50 MBq). The resulting mixture was heated at 80° C. for 20 minutes and then cooled to 40° C., after which 0.25 ml of HCO3^−/CO3^2− buffer was added thereto to adjust the pH at about 8.0. Subsequently, a solution of 0.5 mg of βglu in 1.5 ml of water was added. The complex finally obtained was analyzed by […] and HPLC. […] The radiochemical purity of the final complex was higher than 95%. […]
In a mixture of 0.6 ml of ethanol and […] ( 1 mol/l) of an aqueous HCl solution were dissolved 5 mg of SDH and 1.5 mg of PNP, followed by adding thereto a physiologically acceptable ^99mTcO4 solution ( 0.5 ml, 50 MBq). […] The complex finally obtained was analyzed by HTLC and HPLC. […]
In a mixture of 0.6 ml of ethanol and 0.1 mg (1 mol/l) of an aqueous HCl solution were dissolved 5 mg of SDH and 1.5 mg of PNP, followed by adding thereto a physiologically acceptable ^99mTcO4^− solution (0.5 ml, 50 MBq). […] The complex finally obtained was analyzed by HTLC and HPLC. […]

SMILES: COCCN1CC[P+](c2ccccc2)(c2ccccc2)[99Tc-2]2(#[N])([NH]N(C)C(SC)=[S+]2)[P+](c2ccccc2)(c2ccccc2)CC1 [^99mTc(N)(PNP2)(DTC)^+]
- Bone % dose/g [1]: 0.209 ± 0.01 % dose/g
- Heart % dose/g [1]: 1.399 ± 0.08 % dose/g
- Liver % dose/g [1]: 3.385 ± 0.81 % dose/g
- Spleen % dose/g [1]: 2.739 ± 0.07 % dose/g
- Blood % dose/g ([1]; 0 min after injection): 3.220 ± 0.45 % dose/g
- Brain % dose/g ([1]; 0 min after injection): 0.120 ± 0.00 % dose/g
- Intestine % dose/g ([1]; 0 min after injection): 0.906 ± 0.03 % dose/g
- Kidney % dose/g ([1]; 0 min after injection): 5.702 ± 0.732 % dose/g
- Lung % dose/g ([1]; 0 min after injection): 3.568 ± 0.94 % dose/g
- Muscle % dose/g ([1]; 0 min after injection): 0.134 ± 0.01 % dose/g
- Stomach % dose/g ([1]; 0 min after injection): 0.752 ± 0.09 % dose/g
- Blood % dose/g ([1]; 2 min after injection): 1.025 ± 0.02 % dose/g
- Bone % dose/g ([1]; 2 min after injection): 0.265 ± 0.04 % dose/g
- Brain % dose/g ([1]; 2 min after injection): 0.065 ± 0.01 % dose/g
- Heart % dose/g ([1]; 2 min after injection): 0.728 ± 0.04 % dose/g
- Intestine % dose/g ([1]; 2 min after injection): 1.694 ± 0.18 % dose/g
- Kidney % dose/g ([1]; 2 min after injection): 4.941 ± 0.60 % dose/g
- Liver % dose/g ([1]; 2 min after injection): 7.723 ± 0.20 % dose/g
- Lung % dose/g ([1]; 2 min after injection): 2.040 ± 0.234 % dose/g
- Muscle % dose/g ([1]; 2 min after injection): 0.077 ± 0.00 % dose/g
- Spleen % dose/g ([1]; 2 min after injection): 5.018 ± 0.02 % dose/g
- Stomach % dose/g ([1]; 2 min after injection): 0.0603 ± 0.03 % dose/g
- Blood % dose/g ([1]; 10 min after injection): 0.355 ± 0.03 % dose/g
- Bone % dose/g ([1]; 10 min after injection): 0.268 ± 0.10 % dose/g
- Brain % dose/g ([1]; 10 min after injection): 0.040 ± 0.00 % dose/g
- Heart % dose/g ([1]; 10 min after injection): 0.736 ± 0.12 % dose/g
- Intestine % dose/g ([1]; 10 min after injection): 2.861 ± 0.74 % dose/g
- Kidney % dose/g ([1]; 10 min after injection): 6.910 ± 0.081 % dose/g
- Liver % dose/g ([1]; 10 min after injection): 4.686 ± 0.89 % dose/g
- Lung % dose/g ([1]; 10 min after injection): 1.481 ± 0.10 % dose/g
- Muscle % dose/g ([1]; 10 min after injection): 0.064 ± 0.02 % dose/g
- Spleen % dose/g ([1]; 10 min after injection): 5.334 ± 0.10 % dose/g
- Stomach % dose/g ([1]; 10 min after injection): 0.517 ± 0.16 % dose/g
- Blood % dose/g ([1]; 30 min after injection): 0.333 ± 0.03 % dose/g
- Bone % dose/g ([1]; 30 min after injection): 0.301 ± 0.03 % dose/g
- Brain % dose/g ([1]; 30 min after injection): 0.020 ± 0.00 % dose/g
- Heart % dose/g ([1]; 30 min after injection): 0.652 ± 0.19 % dose/g
- Intestine % dose/g ([1]; 30 min after injection): 7.254 ± 0.46 % dose/g
- Kidney % dose/g ([1]; 30 min after injection): 7.542 ± 1.410 % dose/g
- Liver % dose/g ([1]; 30 min after injection): 7.341 ± 0.38 % dose/g
- Lung % dose/g ([1]; 30 min after injection): 1.015 ± 0.16 % dose/g
- Muscle % dose/g ([1]; 30 min after injection): 0.103 ± 0.02 % dose/g
- Spleen % dose/g ([1]; 30 min after injection): 5.131 ± 0.59 % dose/g
- Stomach % dose/g ([1]; 30 min after injection): 1.135 ± 0.298 % dose/g
- Blood % dose/g ([1]; 1 hr after injection): 0.19 ± 0.01 % dose/g
- Bone % dose/g ([1]; 1 hr after injection): 0.294 ± 0.02 % dose/g
- Brain % dose/g ([1]; 1 hr after injection): 0.025 ± 0.00 % dose/g
- Heart % dose/g ([1]; 1 hr after injection): 0.534 ± 0.02 % dose/g
- Intestine % dose/g ([1]; 1 hr after injection): 7.644 ± 1.01 % dose/g
- Kidney % dose/g ([1]; 1 hr after injection): 6.713 ± 0.83 % dose/g
- Liver % dose/g ([1]; 1 hr after injection): 7.436 ± 1.44 % dose/g
- Lung % dose/g ([1]; 1 hr after injection): 1.011 ± 0.01 % dose/g
- Muscle % dose/g ([1]; 1 hr after injection): 0.075 ± 0.01 % dose/g
- Spleen % dose/g ([1]; 1 hr after injection): 5.073 ± 0.01 % dose/g
- Stomach % dose/g ([1]; 1 hr after injection): 0.932 ± 0.12 % dose/g
- Blood % dose/g ([1]; 2 hr after injection): 0.129 ± 0.02 % dose/g
- Bone % dose/g ([1]; 2 hr after injection): 0.357 ± 0.08 % dose/g
- Brain % dose/g ([1]; 2 hr after injection): 0.025 ± 0.00 % dose/g
- Heart % dose/g ([1]; 2 hr after injection): 0.511 ± 0.05 % dose/g
- Intestine % dose/g ([1]; 2 hr after injection): 6.442 ± 0.59 % dose/g
- Kidney % dose/g ([1]; 2 hr after injection): 6.799 ± 1.348 % dose/g
- Liver % dose/g ([1]; 2 hr after injection): 4.061 ± 0.64 % dose/g
- Lung % dose/g ([1]; 2 hr after injection): 0.962 ± 0.02 % dose/g
- Muscle % dose/g ([1]; 2 hr after injection): 0.102 ± 0.02 % dose/g
- Spleen % dose/g ([1]; 2 hr after injection): 5.507 ± 0.84 % dose/g
- Stomach % dose/g ([1]; 2 hr after injection): 1.701 ± 0.34 % dose/g
- Blood % dose/g ([1]; 4 hr after injection): 0.087 ± 0.00 % dose/g
- Bone % dose/g ([1]; 4 hr after injection): 0.329 ± 0.01 % dose/g
- Brain % dose/g ([1]; 4 hr after injection): 0.018 ± 0.00 % dose/g
- Heart % dose/g ([1]; 4 hr after injection): 0.506 ± 0.04 % dose/g
- Intestine % dose/g ([1]; 4 hr after injection): 4.054 ± 0.39 % dose/g
- Kidney % dose/g ([1]; 4 hr after injection): 7.471 ± 0.03 % dose/g
- Liver % dose/g ([1]; 4 hr after injection): 1.784 ± 0.25 % dose/g
- Lung % dose/g ([1]; 4 hr after injection): 0.670 ± 0.09 % dose/g
- Muscle % dose/g ([1]; 4 hr after injection): 0.08 ± 0.00 % dose/g
- Spleen % dose/g ([1]; 4 hr after injection): 5.055 ± 0.02 % dose/g
- Stomach % dose/g ([1]; 4 hr after injection): 1.220 ± 0.150 % dose/g

SMILES: CCN1CC[PH](c2ccccc2)(c2ccccc2)[99Tc]2(#[N])([O]C(=O)c3ccccc3[S]2)[PH](c2ccccc2)(c2ccccc2)CC1 [Example 3]
- stability of the complex / solution of the complex [2]: stable

SMILES: CCON(CC)C1=[S+][99Tc]2(#[N])([S]1)[PH](c1ccccc1)(c1ccccc1)CCN(CC)CC[PH]2(c1ccccc1)c1ccccc1 [Example 4]
- stability of the complex / solution of the complex [2]: stable
